Molecules are shown by their SMILES.

Here are results for 15 compounds from BindingDB's records for doi:10.1021/jm0309194 (University of Innsbruck, 2003).

A short description of assay [1]: In vitro binding affinity was determined against butyrylcholinesterase from torpedo californica.
The nature of assay [2]: In vitro anticholinesterase activity against butyrylcholinesterase from torpedo californica.

The Ki is the dissociation constant of the complex between target and ligand, obtained from inhibition or displacement. A low value points to tighter binding. As usually defined, the IC50 is the concentration at which inhibition is half-maximal. With `C/C(=C\C(=O)N(C)[C@H]1CC[C@@]2(C)[C@@H](CC[C@@H]3[C@@H]2CC[C@]2(C)C([C@H](C)N(C)C)=CC[C@@H]32)C1)C(C)C` [1N-[14-(1-dimethylaminoethyl)-2,15-dimethyl-(1S,7S,10R,11S)-tetracyclo[8.7.0.02,7.011,15]heptadec-13-en-5-yl]-1N,3,4-trimethyl-(E)-2-pentenamide], the affinity in assay [1] corresponds to a Ki of 9.1 µM. In assay [2], this compound had an IC50 of 3.65 µM.

In assay [2], `C/C=C(\C)C(=O)NC1C=C2CC[C@@H]3[C@H](CC[C@]4(C)C([C@H](C)N(C)C)=CC[C@@H]34)[C@@]2(C)C[C@H]1O` (stereo partly drawn) [1N-[14-[1-dimethylamino-(1S)-ethyl]-4-hydroxy-2,15-dimethyl-(1S,2R,4R,5R,10S,11S,15S)-tetracyclo[8.7.0.02,7.011,15]heptadeca-6,13-dien-5-yl]-2-methyl-(E)-2-butenamide] yielded an IC50 of 23.8 µM.

Take `C/C(=C\C(=O)N[C@H]1CC[C@@]2(C)[C@@H](CC[C@@H]3[C@@H]2CC[C@]2(C)[C@@H]([C@H](C)N(C)C)CC[C@@H]32)C1)C(C)C` [3,4-Dimethyl-pent-2-enoic acid [(3S,5S,8R,9S,10S,13S,14S,17S)-17-(1-dimethylamino-ethyl)-10-methyl-13-(S)-methyl-hexadecahydro-cyclopenta[a]phenanthren-3-yl]-amide]: in assay [1], affinity was put at a Ki of 3.25 µM. For the same compound, in assay [2], the concentration for half-maximal inhibition (IC50) worked out at 4.63 µM.

In turn, `C/C=C(\C)C(=O)N[C@H]1CC[C@@]2(C)C(=CC[C@H]3C4=CC[C@H]([C@H](C)N(C)C)[C@@]4(C)CC[C@@H]32)C1=O` [(E)-2-Methyl-but-2-enoic acid [(3S,8R,9S,10R,13R,17S)-17-((S)-1-dimethylamino-ethyl)-10,13-dimethyl-4-oxo-2,3,4,7,8,9,10,11,12,13,16,17-dodecahydro-1H-cyclopenta[a]phenanthren-3-yl]-amide] displayed a Ki in assay [1] of 1.6 µM. For the same compound, the IC50 in assay [2] amounted to 4.29 µM.

With `C/C=C(\C)C(=O)N[C@H]1CC[C@@]2(C)C(=CC[C@H]3[C@@H]4CC[C@H]([C@H](C)N(C)C)[C@@]4(C)CC[C@@H]32)C1=O` [(E)-2-Methyl-but-2-enoic acid [(3S,8S,9S,10R,13S,14S,17S)-17-((S)-1-dimethylamino-ethyl)-10,13-dimethyl-4-oxo-2,3,4,7,8,9,10,11,12,13,14,15,16,17-tetradecahydro-1H-cyclopenta[a]phenanthren-3-yl]-amide], the Ki in assay [1] stood at 3.08 µM. The same compound returned an IC50 in assay [2] of 2.1 µM.

`C/C(=C\C(=O)N(C)[C@H]1CC[C@@]2(C)[C@@H](CC[C@@H]3[C@@H]2CC[C@]2(C)[C@@H]([C@H](C)N(C)C)CC[C@@H]32)C1)C(C)C` [(E)-3,4-Dimethyl-pent-2-enoic acid [(3S,5S,8R,9S,10S,13S,14S,17S)-17-((S)-1-dimethylamino-ethyl)-10,13-dimethyl-hexadecahydro-cyclopenta[a]phenanthren-3-yl]-methyl-amide]: the Ki in assay [1] came out at 3.4 µM. This compound also yielded an IC50 in assay [2] of 4.07 µM.

In assay [1], `C[C@@H]([C@H]1CC[C@H]2[C@@H]3CC[C@H]4C[C@@H](N(C)C(=O)/C=C/c5ccccc5)CC[C@]4(C)[C@H]3CC[C@]12C)N(C)C` [(E)-N-[(3S,5S,8R,9S,10S,13S,14S,17S)-17-((S)-1-Dimethylamino-ethyl)-10,13-dimethyl-hexadecahydro-cyclopenta[a]phenanthren-3-yl]-N-methyl-3-phenyl-acrylamide] registered a Ki of 6.6 µM. In assay [2], this compound gave an IC50 of 4.84 µM.

In assay [2], `C/C=C(\C)C(=O)N[C@@H]1[C@H](OC(C)=O)[C@@H]2CC[C@@H]3[C@H](CC[C@]4(C)[C@@H]([C@H](C)N(C)C)CC[C@@H]34)[C@@]2(C)C[C@@H]1O` [Acetic acid (1S,4S,6R,7R,10R,11S,12S,15S,16S)-17-((S)-1-dimethylamino-ethyl)-2-(S)-hydroxy-10,13-dimethyl-3-((E)-2-methyl-but-2-enoylamino)-hexadecahydro-cyclopenta[a]phenanthren-4-yl ester] displayed an IC50 of 18.2 µM.

`CC(=O)O[C@H]1[C@@H](NC(=O)C=C(C)C)CC[C@]2(C)[C@H]3CC[C@]4(C)[C@@H]([C@H](C)N(C)C)CC[C@H]4[C@@H]3CC[C@@H]12` [Acetic acid (1S,6R,7R,10R,11S,12S,15S,16S)-17-((S)-1-dimethylamino-ethyl)-10,13-dimethyl-3-(3-methyl-but-2-enoylamino)-hexadecahydro-cyclopenta[a]phenanthren-4-yl ester] came in with a Ki in assay [1] of 2.58 µM. This compound showed an IC50 in assay [2] of 2.3 µM.

Take `C/C=C(\C)C(=O)N[C@@H]1[C@H](OC(C)=O)[C@@H]2CC[C@H]3C4=CC[C@H]([C@H](C)N(C)C)[C@@]4(C)CC[C@@H]3[C@@]2(C)C[C@@H]1O` [Acetic acid (2S,3S,4R,5R,8R,9S,10R,13R,17S)-17-((S)-1-dimethylamino-ethyl)-2-hydroxy-10,13-dimethyl-3-((E)-2-methyl-but-2-enoylamino)-2,3,4,5,6,7,8,9,10,11,12,13,16,17-tetradecahydro-1H-cyclopenta[a]phenanthren-4-yl ester]: affinity in assay [1] was put at a Ki of 26.3 µM. In assay [2], this compound had an IC50 of 38.4 µM.

`CC(=O)O[C@H]1[C@@H](NC(=O)c2ccccc2)[C@@H](O)C[C@]2(C)[C@H]3CC[C@]4(C)[C@@H]([C@H](C)N(C)C)CC[C@H]4[C@@H]3CC[C@@H]12` [Acetic acid (2S,3S,4R,5R,8S,9S,10R,13S,14S,17S)-3-benzoylamino-17-(1-dimethylamino-ethyl)-2-hydroxy-10-methyl-13-(S)-methyl-hexadecahydro-cyclopenta[a]phenanthren-4-yl ester] displayed a Ki in assay [1] of 20.3 µM. This compound also showed an IC50 in assay [2] of 18 µM.

In assay [1], `CN[C@H]1CC[C@@]2(C)[C@@H](CC[C@@H]3[C@@H]2CC[C@]2(C)[C@@H]([C@H](C)N(C)C(C)=O)CC[C@@H]32)C1` [N-Methyl-N-[1-((3S,5S,8R,9S,10S,13S,14S,17S)-10-methyl-13-(S)-methyl-3-methylamino-hexadecahydro-cyclopenta[a]phenanthren-17-yl)-ethyl]-acetamide] showed a Ki of 8.6 µM. The compound further came in with an IC50 in assay [2] of 16.5 µM.

For `C[C@@H]([C@H]1CC[C@H]2[C@@H]3CC[C@H]4C[C@@H](NC(=O)c5ccccc5)[C@@H](O)C[C@]4(C)[C@H]3CC[C@]12C)N(C)C` [N-[(2S,3R,5S,8R,9S,10S,13S,14S,17S)-17-(1-Dimethylamino-ethyl)-2-hydroxy-10-methyl-13-(S)-methyl-hexadecahydro-cyclopenta[a]phenanthren-3-yl]-benzamide], in assay [1], the Ki stood at 16.2 µM. It took 28.9 µM to reach half-maximal inhibition in assay [2] (IC50).

For the compound `CC(=O)N[C@H]1CC[C@@]2(C)[C@@H](CC[C@@H]3[C@@H]2CC[C@]2(C)[C@@H]([C@H](C)N(C)C)CC[C@@H]32)C1` [N-[(3S,5S,8R,9S,10S,13S,14S,17S)-17-((S)-1-Dimethylamino-ethyl)-10,13-dimethyl-hexadecahydro-cyclopenta[a]phenanthren-3-yl]-acetamide], the affinity in assay [1], expressed as Ki, was 7.5 µM. The compound further had an IC50 in assay [2] of 10.3 µM.

Regarding `C[C@@H]([C@H]1CC[C@H]2[C@@H]3CC[C@H]4C(=O)C(NC(=O)c5ccccc5)=CC[C@]4(C)[C@H]3CC[C@]12C)N(C)C` [N-[(5R,8S,9S,10R,13S,14S,17S)-17-((S)-1-Dimethylamino-ethyl)-10,13-dimethyl-4-oxo-4,5,6,7,8,9,10,11,12,13,14,15,16,17-tetradecahydro-1H-cyclopenta[a]phenanthren-3-yl]-benzamide], in assay [1], the Ki worked out at 2.15 µM. For the same compound, half-maximal inhibition in assay [2] (IC50) was put at 2.49 µM.
